Source: US10201556B2, “Combination for use in treating diseases or conditions associated with melanoma, or treating diseases or conditions associated with activated B-raf pathway” (InteRNA Technologies B.V., priority 2012, dated 2019)
“Also recorded” adds a separate entry of the source.

Key:
Format in all cases: cell-based, human
phospho-ERK1/2 = experiment: Western immunoblotting of phospho-ERK1/2 protein levels; conditions: Western blot
Experimental: (§1) A375Hu cells were seeded in 6-well plates and transfected with different concentrations (10, 50 and 100 nM) of synthetic hsa-miR-129-5p or BRAF siRNA (100 nM) using RNAiMAX (7.5 μl/well). As control a scrambled miRNA and a non-targeting siRNA pool were included. Proteins were harvested 72 hrs post transfection using RIPA buffer supplemented with HALT™ Phosphatase Inhibitor (Thermo Scientific) and Protease Inhibitor Cocktail (Sigma). Fifteen μg protein was loaded on 7.5% TGX acrylamide gels (Bio-Rad) and subsequently transferred to PVDF membranes. The membranes were blocked in 5% milk in TBS-T and incubated O/N at 4° C. with primary antibodies to bRAF, phosphoERK1/2, CDK6, and tubulin (Santa Cruz). After incubation with secondary goat-anti-mouse antibodies (Santa Cruz), membranes were developed using ECL (Pierce).
as §1, with “(1, 10” for “(10, 50”, “hsa-miR-3157” for “hsa-miR-129-5p”, “bRAF, total ERK1/2,” for “bRAF,”, “CDK4, BCL2” for “CDK6,”
as §1, with “concentrations” for “concentrations (10, 50 and 100 nM)”, “vemurafenib (PLX-4032, 0.01, 0.1, 1 uM).” for “synthetic hsa-miR-129-5p or BRAF siRNA (100 nM) using RNAiMAX (7.5 μl/well). As control a scrambled miRNA and a non-targeting siRNA pool were included.”, “bRAF, total ERK1/2,” for “bRAF,”, “CDK4, BCL2” for “CDK6,”
(§2) A2058 cells were seeded in 6-well plates and transfected with different concentrations (1, 10 and 100 nM) of synthetic hsa-miR-3157-5p or BRAF siRNA using X-TremeGene (Roche, 15 μl/well). As control a scrambled miRNA was included. Proteins were harvested 72 hrs post transfection using RIPA buffer supplemented with HALT™ Phosphatase Inhibitor (Thermo Scientific) and Protease Inhibitor Cocktail (Sigma). Fifteen μg protein was loaded on 10% TGX acrylamide gels (Bio-Rad) and subsequently transferred to PVDF membranes. The membranes were blocked in 5% milk in TBS-T and incubated O/N at 4° C. with primary antibodies to bRAF, total ERK1/2, phosphoERK1/2, BCL2, CDK4 and tubulin (Santa Cruz). After incubation with secondary goat-anti-mouse antibodies (Santa Cruz), membranes were developed using ECL (Pierce).
Transfection was performed as described in Example 4 in 6-well format. Proteins were isolated using RIPA buffer (50 mM Tris pH 8.0, 150 mM NaCL, 1% NP-40, 0.5% Sodium deoxycholate, 0.1% SDS), supplemented with Protease Inhibitor Cocktail (Sigma) and Halt™ Phosphatase Inhibitor Cocktail (Pierce/Thermo Scientific). […]

CDK4 = experiment: Western immunoblotting of CDK4 protein levels
Experimental: as §1, with “(1, 10” for “(10, 50”, “hsa-miR-3157” for “hsa-miR-129-5p”, “bRAF, total ERK1/2,” for “bRAF,”, “CDK4, BCL2” for “CDK6,”
as §1, with “concentrations” for “concentrations (10, 50 and 100 nM)”, “vemurafenib (PLX-4032, 0.01, 0.1, 1 uM).” for “synthetic hsa-miR-129-5p or BRAF siRNA (100 nM) using RNAiMAX (7.5 μl/well). As control a scrambled miRNA and a non-targeting siRNA pool were included.”, “bRAF, total ERK1/2,” for “bRAF,”, “CDK4, BCL2” for “CDK6,”
as §2
(§3) Transfection was performed as described in Example 4 in 6-well format. Proteins were isolated using RIPA buffer (50 mM Tris pH 8.0, 150 mM NaCL, 1% NP-40, 0.5% Sodium deoxycholate, 0.1% SDS), supplemented with Protease Inhibitor Cocktail (Sigma) and Halt™ Phosphatase Inhibitor Cocktail (Pierce/Thermo Scientific). Fifteen μg protein was loaded on a 12% Mini-PROTEAN® TGX™ Precast Gel (Bio-Rad), and proteins were transferred to Immun-Blot PVDF Membrane (Bio-Rad). Membranes were blocked in 5% milk or 5% BSA in TBS-T, and incubated O/N at 4° C. with primary antibodies against α-tubulin (1:5000), BRAF, pERK1/2, CDK4, RRM2 (all 1:1000), BCL-2 (1:500) (Santa Cruz), total-ERK1/2 (1:2000), BIRC5, AURKB (1:1000) (Cell Signaling), ERK1 (1:2000) (GeneTex). After incubation with appropriate secondary antibodies and western blot chemiluminescence substrate ECL (Pierce/Thermo Scientific), membranes were exposed to CL-XPosure Film (Pierce/Thermo Scientific).

AURKB = experiment: Western blotting of AURKB protein levels
Experimental: as §3

RRM2 = experiment: Western blotting of RRM2 protein levels
Experimental: as §3

BIRC5 = experiment: Western blotting of BIRC5 protein levels
Experimental: as §3

[1] = A375 cells, increasing concentrations of mimic (FIG. 12c)
[2] = A2058, M249, M249-AR4 and M376, increasing concentrations of mimic (FIG. 14a)
[3] = vemurafenib-resistant A2058, M249-AR4 and M376, 1 μM, 24 hrs (FIG. 14b)
[4] = vemurafenib-sensitive A375 and M249, 1 μM, 24 hrs (FIG. 14b)

**Q.** What does the source list for “hsa-miR-3157-5p: mature miRNA mimic, SEQ ID NO 6 UUCAGCCAGGCUAGUGCAGUCU (listed as RNA, chemistry not given here)”?
**A.** phospho-ERK1/2 protein levels (phospho-ERK1/2; A375Hu cells, 72 hrs): does not down-regulate; also recorded: not affected; phospho-ERK1/2 protein levels (phospho-ERK1/2; A2058 cells (vemurafenib resistant), 72 hrs post transfection): not down-regulated; CDK4 protein levels (CDK4; A375Hu cells, 72 hrs, Western blot): significant reduction in CDK4 protein levels; also recorded: down-regulated; CDK4 protein levels (CDK4; [1]): strong reduction; CDK4 protein levels (CDK4; A2058, increasing concentrations of mimic (FIG. 14a)): mild effect; CDK4 protein levels (CDK4; A2058 cells (vemurafenib resistant), 72 hrs post transfection, Western blot): reduction; also recorded: down-regulated; CDK4 protein levels (CDK4; M249-AR4, increasing concentrations of mimic (FIG. 14a)): no effect; CDK4 protein levels (CDK4; M249 and M376, increasing concentrations of mimic (FIG. 14a)): strong downregulation; AURKB protein levels (AURKB; [1]): most pronounced; AURKB protein levels (AURKB; [2]): strongly downregulated; RRM2 protein levels (RRM2; [1]): most pronounced; RRM2 protein levels (RRM2; [2]): strongly downregulated; BIRC5 protein levels (BIRC5; [1]): most pronounced; BIRC5 protein levels (BIRC5; [2]): strong downregulation

**Q.** Which phospho-ERK1/2 protein levels (phospho-ERK1/2; A375Hu cells, 72 hrs) does the source give for `CCCS(=O)(=O)Nc1ccc(F)c(C(=O)c2c[nH]c3ncc(-c4ccc(Cl)cc4)cc23)c1F` [Vemurafenib, N-(3-{[5-(4-chlorophenyl)-1H-pyrrolo[2,3-b]pyridin-3-yl]carbonyl}-2,4-difluorophenyl)propane-1-sulfonamide] here?
**A.** inhibits

**Q.** And the phospho-ERK1/2 protein levels (phospho-ERK1/2; A375Hu cells, 72 hrs, listed as PLX-4032)?
**A.** down regulation

**Q.** And the CDK4 protein levels (CDK4; A375Hu cells, 72 hrs, Western blot, listed as PLX-4032)?
**A.** not in reduction of CDK4 and BCL2 protein levels

**Q.** And the AURKB protein levels (AURKB; [3])?
**A.** protein levels similar to control-treated cells

**Q.** What about the AURKB protein levels (AURKB; [4]) of the same molecule?
**A.** downregulated

**Q.** What about the RRM2 protein levels (RRM2; [3]) of the same molecule?
**A.** protein levels similar to control-treated cells

**Q.** And the RRM2 protein levels (RRM2; [4])?
**A.** downregulated

**Q.** And the BIRC5 protein levels (BIRC5; [3])?
**A.** protein levels similar to control-treated cells

**Q.** What about the BIRC5 protein levels (BIRC5; [4]) of the same molecule?
**A.** downregulated
